Measured values as given in US10233463B2, “Neurotensin-induced tumor formation is regulated by micro RNA 133A-aftiphilin-dependent receptor recycling” (THE REGENTS OF THE UNIVERSITY OF CALIFORNIA, priority 2013, dated 2019).

Assays:
NCM460-NTR1 cells = assay: NTR1 localization and recycling by immunofluorescence; assay type: cell-based, human; conditions: 10 nM Brefeldin A during recovery
Description: Immunofluorescence. NCM460-NTR1 cells were transfected with antisense miR-133α (as-miR-133α) (Ambion) and its control using siPORTNeoFX transfection reagent (Applied Biosystems) or siRNA against AFTPH and its control (Santa Cruz) using Lipofectamine™ RNAiMAX (Invitrogen) where appropriate. […] Cells were fixed in PBS containing 4% (w/v) paraformeldehyde (pH 7.4, 20 min, 4° C.) and blocked in PBS containing 3% bovine serum and 0.1% Triton X. Cells were incubated (16 h, 4° C.) with the following antibodies (Santa Cruz): goat anti-NTR1 (1:100), goat anti-AFTPH (1:100) and rabbit anti-TGN38 (1:100). Cells were washed and incubated (2 h, room temperature) with bovine anti-goat IgG or bovine-anti-rabbit IgG conjugated to FITC or Texas Red (Santa Cruz, 1:500). […]
Image analysis protocol. Substacks of five optical sections were generated per image and were analyzed using Images J with MacBiophotonics plugins. […] Mean fluorescence intensity was measured for these two regions, representing the intracellular and cell surface associated NTR1 labeling, respectively. The relative surface and intracellular values were expressed as a ratio. […] Only cells with a defined nucleus were analyzed and only within cell comparisons were made. […]

SW480 cells = assay: Anchorage-independent growth assay with Brefeldin A in the presence of NT; assay type: cell-based, human
Description: Anchorage-independent growth assays. […] HCT-116 and SW480 cells were transfected with miR-133α or si-AFTPH 2 days prior to the assay. In addition, SW480 cells were treated with 2.5, 5, 10 μg/ml brefeldin A in the presence of 100 nM NT. Triplicates of 5,000 cells were suspended in complete growth media supplemented with 0.4% agarose [mixing 2% agarose with complete growth media in 1:4 (v/v)). Cell mixtures were layered on 0.8% agarose and fed with complete growth media supplemented with 0.4% agarose every 6-7 days. The number of colonies was counted after 15 days. Experiments were repeated 3 times. Statistical significance was calculated using the Student's t-Test.

Question: For `C[C@H]1CCC/C=C/[C@@H]2C[C@H](O)C[C@H]2[C@H](O)/C=C/C(=O)O1` [Brefeldin A], which “membrane-associated NTR1 vs total cellular receptors” value (NCM460-NTR1 cells; 3 h after NT stimulation) is on record?
Answer: The value was 57.0±2.95%.

Question: What about the “membrane-associated NTR1 vs total cellular receptors” value (NCM460-NTR1 cells; 6 h after NT stimulation) of the same compound?
Answer: The value was 52.1±2.89%.

Question: What about the “SW480 cell growth (colony formation)” value (SW480 cells; 2.5, 5, 10 μg/ml) of the same compound?
Answer: The value was “inhibited”.

Question: What about the “reduction of NT-induced tumor colony formation” value (SW480 cells; NT 100 nM) of the same compound?
Answer: The value was 44.1±1.1%.
